Laboratory results taken from patent US20090069319A1, “IMIDAZOPYRIDINE ANALOGS AND THEIR USE AS AGONISTS OF THE WNT-BETA-CATENIN CELLULAR MESSAGING SYSTEM” (Wyeth, priority 2007, published 2009).

Test: Functional Dkk1-LRP5-TCF-Luciferase Assay in U2OS Cells (table columns: A=MAX FOLD Induction/DMSO CONTROL; B=fold induction @ 2.0 uM; C=fold induction @ 20.0 uM)
Assay type: cell-based, Human
Settings: Homo sapiens, U2OS; 2.0 uM compound
Method: Biological Evaluation—Functional Dkk1-LRP5-TCF-Luciferase Assay in U2OS Cells
U2OS Human Bone derived cells (Osteosarcoma) are grown in McCoy's 5A Medium (Modified), with L-glutamine (GIBCO Cat No. 16600-082)+1% Pen-Strep+5% FBS) plated at 1×10^7 cells/T175 cm flask. The next day, the cells are co-transfected overnight with the following plasmids: (a) Test reporter (16×TCF-TK-FireFly-Luci), (b) Internal Control Reporter (TK-Renilla-Luci), (c) Wnt3a and (d) Dkk1. GIBCO's Lipofectamine 2000 and OptiMEM were used for the transfection. After a minimum of 4 hr of transfection at 37° C., the plasmid-transfected cells are trypsinized, counted, and suspended in freezing medium (95% FBS+5% DMSO). The reporter cells are frozen at 1×10^7/ml concentrations, aliquoted into 0.5 ml or 2.5 ml/tube and stored at −70° C.
The following day, test compounds are added under HTS setup by Plate Track into 384 well plates (white, TC treated, Falcon plate) such that the final concentration of the compounds in 20 μL/well cell will be 5 μg/ml (final concentration of DMSO=0.25% and final compound concentration=20 μM). Vials of frozen reporter cells are thawed by warming the vial in a 37° C. water bath for 60-120 seconds with some shaking until the cells formed a suspension. The thawed cells are transferred into a cold 50 ml (or larger) tube and mixed well by gentle pipetting. The appropriate amount of cold Phenol Red Free RPMI medium-1640 (GIBCO, Cat # 11835-030) with L-glutamine is added, both with ˜5% FBS (GIBCO-BRL, Cat. # 16000-044), so that 20 μl of the final cell suspension will contain ˜5,000 cells. The cell dilution is done such that the final concentration of FBS was ˜5%. Diluted cells (20 μl) are added into each well in a 384 well plate. The plate is incubated at 37° C. under 5% CO2 for ˜20 h. Bright-Glo substrate, 2.5 μl/well is added, and the Fire Fly Luciferase is measured using VLUX (60 second exposure) immediately after the substrate was added. Test compounds are dissolved in DMSO (100%) and added to specified wells. Raw luciferase signal data obtained as relative luminescence units (RLUs) for the test compounds are normalized to the signal of the mean of the sample reporter cell plate with DMSO.
Active compounds have TCF-luciferase ratios of 2.5 fold or greater over DMSO. All compounds show a signal increase of at least 10% compared to a signal with only DMSO added.
A=MAX FOLD Induction/DMSO CONTROL
B=TCF ACTIVITY/DMSO CONTROL Fold induction @ 2.0 uM C=TCF ACTIVITY/DMSO CONTROL Fold induction @ 20.0 uM
Brc1ccccc1-c1nc2c(-c3ccc4ccccc4c3)ccnc2n1C1CCNCC1 [2-(2-bromophenyl)-7-(2-naphthyl)-3-piperidin-4-yl-3H-imidazo[4,5-b]pyridine] showed a fold induction at 2 µM of 1.6.
Compound Cc1cn(-c2ccccc2)c(Cl)c1-c1nc2c(-c3ccc4ccccc4c3)ccnc2n1C1CCNCC1 [2-(2-chloro-4-methyl-1-phenyl-1H-pyrrol-3-yl)-7-(2-naphthyl)-3-piperidin-4-yl-3H-imidazo[4,5-b]pyridine] has a fold induction at 2 µM of 1.48.
For Clc1ccccc1-c1nc2c(-c3ccc4ccccc4c3)ccnc2n1C1CCNCC1 [2-(2-chlorophenyl)-7-(2-naphthyl)-3-piperidin-4-yl-3H-imidazo[4,5-b]pyridine], the fold induction at 2 µM was 1.36.
For Fc1ccccc1-c1nc2cc(-c3ccc4ccccc4c3)cnc2n1C1CCNCC1 [2-(2-fluorophenyl)-6-(2-naphthyl)-3-piperidin-4-yl-3H-imidazo[4,5-b]pyridine], the fold induction at 2 µM was 1.29.
With Fc1ccccc1-c1nc2c(-c3ccc4ccccc4c3)ccnc2n1C1CCNCC1 [2-(2-fluorophenyl)-7-(2-naphthyl)-3-piperidin-4-yl-3H-imidazo[4,5-b]pyridine] the fold induction at 2 µM was 1.29.
c1coc(-c2nc3cc(-c4ccc5ccccc5c4)cnc3n2C2CCNCC2)c1 [2-(2-furyl)-6-(2-naphthyl)-3-piperidin-4-yl-3H-imidazo[4,5-b]pyridine] showed a fold induction at 2 µM of 1.27.
c1coc(-c2nc3c(-c4ccc5ccccc5c4)ccnc3n2C2CCNCC2)c1 [2-(2-furyl)-7-(2-naphthyl)-3-piperidin-4-yl-3H-imidazo[4,5-b]pyridine] showed a fold induction at 2 µM of 1.82.
In the case of COc1ccc2ccccc2c1-c1nc2c(-c3ccc4ccccc4c3)ccnc2n1C1CCNCC1 [2-(2-methoxy-1-naphthyl)-7-(2-naphthyl)-3-piperidin-4-yl-3H-imidazo[4,5-b]pyridine], the fold induction at 2 µM was 1.17.
In the case of COc1ccccc1-c1nc2cc(-c3ccc4ccccc4c3)cnc2n1C1CCNCC1 [2-(2-methoxyphenyl)-6-(2-naphthyl)-3-piperidin-4-yl-3H-imidazo[4,5-b]pyridine], the fold induction at 2 µM was 1.37.
For COc1ccccc1-c1nc2c(-c3ccc4ccccc4c3)ccnc2n1C1CCNCC1 [2-(2-methoxyphenyl)-7-(2-naphthyl)-3-piperidin-4-yl-3H-imidazo[4,5-b]pyridine], the fold induction at 2 µM was 1.99.
For COc1ncccc1-c1nc2c(-c3ccc4ccccc4c3)ccnc2n1C1CCNCC1 [2-(2-methoxypyridin-3-yl)-7-(2-naphthyl)-3-piperidin-4-yl-3H-imidazo[4,5-b]pyridine], the fold induction at 2 µM was 1.5.
With Cc1nc(-c2nc3c(-c4ccc5ccccc5c4)ccnc3n2C2CCNCC2)c[nH]1 [2-(2-methyl-1H-imidazol-4-yl)-7-(2-naphthyl)-3-piperidin-4-yl-3H-imidazo[4,5-b]pyridine] the fold induction at 2 µM was 1.04.
In the case of Clc1cncc(Cl)c1-c1nc2c(-c3ccc4ccccc4c3)ccnc2n1C1CCNCC1 [2-(3,5-dichloropyridin-4-yl)-7-(2-naphthyl)-3-piperidin-4-yl-3H-imidazo[4,5-b]pyridine], the fold induction at 2 µM was 1.95.
Brc1cccc(-c2nc3c(-c4ccc5ccccc5c4)ccnc3n2C2CCNCC2)c1 [2-(3-bromophenyl)-7-(2-naphthyl)-3-piperidin-4-yl-3H-imidazo[4,5-b]pyridine] gave a fold induction at 2 µM of 1.52.
In the case of Clc1cccc(-c2nc3cc(-c4ccc5ccccc5c4)cnc3n2C2CCNCC2)c1 [2-(3-chlorophenyl)-6-(2-naphthyl)-3-piperidin-4-yl-3H-imidazo[4,5-b]pyridine], the fold induction at 2 µM was 0.98.
In the case of Clc1cccc(-c2nc3c(-c4ccc5ccccc5c4)ccnc3n2C2CCNCC2)c1 [2-(3-chlorophenyl)-7-(2-naphthyl)-3-piperidin-4-yl-3H-imidazo[4,5-b]pyridine], the fold induction at 2 µM was 1.5.
Compound Fc1cccc(-c2nc3c(-c4ccc5ccccc5c4)ccnc3n2C2CCNCC2)c1 [2-(3-fluorophenyl)-7-(2-naphthyl)-3-piperidin-4-yl-3H-imidazo[4,5-b]pyridine] has a fold induction at 2 µM of 1.55.
With COc1cccc(-c2nc3cc(-c4ccc5ccccc5c4)cnc3n2C2CCNCC2)c1 [2-(3-methoxyphenyl)-6-(2-naphthyl)-3-piperidin-4-yl-3H-imidazo[4,5-b]pyridine] the fold induction at 2 µM was 0.97.
COc1cccc(-c2nc3c(-c4ccc5ccccc5c4)ccnc3n2C2CCNCC2)c1 [2-(3-methoxyphenyl)-7-(2-naphthyl)-3-piperidin-4-yl-3H-imidazo[4,5-b]pyridine] showed a fold induction at 2 µM of 1.25.
Cc1cccc(-c2nc3cc(-c4ccc5ccccc5c4)cnc3n2C2CCNCC2)c1 [2-(3-methylphenyl)-6-(2-naphthyl)-3-piperidin-4-yl-3H-imidazo[4,5-b]pyridine] showed a fold induction at 2 µM of 1.33.
For Cc1cccc(-c2nc3c(-c4ccc5ccccc5c4)ccnc3n2C2CCNCC2)c1 [2-(3-methylphenyl)-7-(2-naphthyl)-3-piperidin-4-yl-3H-imidazo[4,5-b]pyridine], the fold induction at 2 µM was 1.91.
Compound Cc1cc(-c2nc3c(-c4ccc5ccccc5c4)ccnc3n2C2CCNCC2)oc1C [2-(4,5-dimethyl-2-furyl)-7-(2-naphthyl)-3-piperidin-4-yl-3H-imidazo[4,5-b]pyridine] has a fold induction at 2 µM of 1.54.
Work on Brc1ccc(-c2nc3c(-c4ccc5ccccc5c4)ccnc3n2C2CCNCC2)cc1 [2-(4-bromophenyl)-7-(2-naphthyl)-3-piperidin-4-yl-3H-imidazo[4,5-b]pyridine] yielded a fold induction at 2 µM of 1.23.
Work on Clc1ccc(-c2nc3c(-c4ccc5ccccc5c4)ccnc3n2C2CCNCC2)cc1 [2-(4-chlorophenyl)-7-(2-naphthyl)-3-piperidin-4-yl-3H-imidazo[4,5-b]pyridine] yielded a fold induction at 2 µM of 1.21.
CC(C)c1ccc(-c2nc3cc(-c4ccc5ccccc5c4)cnc3n2C2CCNCC2)cc1 [2-(4-isopropylphenyl)-6-(2-naphthyl)-3-piperidin-4-yl-3H-imidazo[4,5-b]pyridine] showed a fold induction at 2 µM of 1.14.
CC(C)c1ccc(-c2nc3c(-c4ccc5ccccc5c4)ccnc3n2C2CCNCC2)cc1 [2-(4-isopropylphenyl)-7-(2-naphthyl)-3-piperidin-4-yl-3H-imidazo[4,5-b]pyridine] showed a fold induction at 2 µM of 1.03.
Work on Cc1nc[nH]c1-c1nc2c(-c3ccc4ccccc4c3)ccnc2n1C1CCNCC1 [2-(4-methyl-1H-imidazol-5-yl)-7-(2-naphthyl)-3-piperidin-4-yl-3H-imidazo[4,5-b]pyridine] yielded a fold induction at 2 µM of 1.31.
Cc1ccc(-c2nc3cc(-c4ccc5ccccc5c4)cnc3n2C2CCNCC2)cc1 [2-(4-methylphenyl)-6-(2-naphthyl)-3-piperidin-4-yl-3H-imidazo[4,5-b]pyridine] gave a fold induction at 2 µM of 1.
Work on Cc1ccc(-c2nc3c(-c4ccc5ccccc5c4)ccnc3n2C2CCNCC2)cc1 [2-(4-methylphenyl)-7-(2-naphthyl)-3-piperidin-4-yl-3H-imidazo[4,5-b]pyridine] yielded a fold induction at 2 µM of 1.9.
O=[N+]([O-])c1cc(-c2nc3cc(-c4ccc5ccccc5c4)cnc3n2C2CCNCC2)ccc1N1CCOCC1 [2-(4-morpholin-4-yl-3-nitrophenyl)-6-(2-naphthyl)-3-piperidin-4-yl-3H-imidazo[4,5-b]pyridine] showed a fold induction at 2 µM of 1.01.
Compound O=[N+]([O-])c1cc(-c2nc3c(-c4ccc5ccccc5c4)ccnc3n2C2CCNCC2)ccc1N1CCOCC1 [2-(4-morpholin-4-yl-3-nitrophenyl)-7-(2-naphthyl)-3-piperidin-4-yl-3H-imidazo[4,5-b]pyridine] has a fold induction at 2 µM of 1.44.
Compound CC(C)(C)c1ccc(-c2nc3cc(-c4ccc5ccccc5c4)cnc3n2C2CCNCC2)cc1 [2-(4-tert-butylphenyl)-6-(2-naphthyl)-3-piperidin-4-yl-3H-imidazo[4,5-b]pyridine] has a fold induction at 2 µM of 1.13.
CC(C)(C)c1ccc(-c2nc3c(-c4ccc5ccccc5c4)ccnc3n2C2CCNCC2)cc1 [2-(4-tert-butylphenyl)-7-(2-naphthyl)-3-piperidin-4-yl-3H-imidazo[4,5-b]pyridine] showed a fold induction at 2 µM of 1.88.
For COc1ccc2[nH]cc(-c3nc4c(-c5ccc6ccccc6c5)ccnc4n3C3CCNCC3)c2c1 [2-(5-methoxy-1H-indol-3-yl)-7-(2-naphthyl)-3-piperidin-4-yl-3H-imidazo[4,5-b]pyridine], the fold induction at 2 µM was 1.2.

Same assay, conditions: Homo sapiens, U2OS; 20.0 uM compound
For c1coc(-c2nc3cc(-c4ccc5ccccc5c4)cnc3n2C2CCNCC2)c1 [2-(2-furyl)-6-(2-naphthyl)-3-piperidin-4-yl-3H-imidazo[4,5-b]pyridine], the fold induction at 20 µM was 0.01.
c1coc(-c2nc3c(-c4ccc5ccccc5c4)ccnc3n2C2CCNCC2)c1 [2-(2-furyl)-7-(2-naphthyl)-3-piperidin-4-yl-3H-imidazo[4,5-b]pyridine] gave a fold induction at 20 µM of 0.01.
COc1ccccc1-c1nc2cc(-c3ccc4ccccc4c3)cnc2n1C1CCNCC1 [2-(2-methoxyphenyl)-6-(2-naphthyl)-3-piperidin-4-yl-3H-imidazo[4,5-b]pyridine] gave a fold induction at 20 µM of 0.01.
Cc1nc(-c2nc3c(-c4ccc5ccccc5c4)ccnc3n2C2CCNCC2)c[nH]1 [2-(2-methyl-1H-imidazol-4-yl)-7-(2-naphthyl)-3-piperidin-4-yl-3H-imidazo[4,5-b]pyridine] showed a fold induction at 20 µM of 0.02.
In the case of Clc1cncc(Cl)c1-c1nc2c(-c3ccc4ccccc4c3)ccnc2n1C1CCNCC1 [2-(3,5-dichloropyridin-4-yl)-7-(2-naphthyl)-3-piperidin-4-yl-3H-imidazo[4,5-b]pyridine], the fold induction at 20 µM was 0.29.
Work on O=[N+]([O-])c1cc(-c2nc3c(-c4ccc5ccccc5c4)ccnc3n2C2CCNCC2)ccc1N1CCOCC1 [2-(4-morpholin-4-yl-3-nitrophenyl)-7-(2-naphthyl)-3-piperidin-4-yl-3H-imidazo[4,5-b]pyridine] yielded a fold induction at 20 µM of 0.06.
